Columns and labels:
[1] = Cell Titer-fluor cell activity assay in HCV-1b replicon cells (CC50); type: cell-based
Outline: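 CC50 derived by nonlinear fitting of inhibition % from Cell Titer-fluor signal (405/515 nm, 30 min). Cells: genotype 1b Con1 replicon carrying E1202G, T1280I, K1846T, seeded 8000/well with compound for 3 days, 37 °C, 0.5% DMSO; 6 points, 5-fold dilution, top 100, 10 or 1 nM, duplicates.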

[2] = system: HCV genotype 1a (HCV-1a) replicon cells; assay: HCV genotype 1a replicon luciferase assay (EC50); type: cell-based, hepatitis C virus genotype 1a (H77 clone); settings: Hepatitis C virus, 72 h, 3 days, luciferase (Bright-Glo)
Outline: (§1)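 EC50 by nonlinear fitting of % inhibition from Bright-Glo luciferase signal after 3-day, 37° C. compound exposure (5-fold, 6 points from 100, 10 or 1 nM; 0.5% DMSO; duplicates). Cells: 1a replicon from H77 (K1691R/K2040R/S2204I) or 1b from Con1 (E1202G/T1280I/K1846T), 8000 per well.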

[3] = system: HCV genotype 1b (HCV-1b) replicon cells; assay: HCV genotype 1b replicon luciferase assay (EC50); type: cell-based, hepatitis C virus genotype 1b (Con1 clone); settings: Hepatitis C virus, 72 h, 3 days, luciferase (Bright-Glo)
Outline: as §1

COC(=O)N[C@H](C(=O)N1CCC[C@H]1c1ncc(-c2ccc(-c3ccc(-c4cnc(C5C6CCC(C6)[C@H]5C(=O)NCc5cccnc5C(C)C)[nH]4)cc3)cc2)[nH]1)[C@@H](C)OC (stereo partly drawn) [AA_245_A]
CC50 at 3 days [1]: > 1 nM | EC50 [2]: 10 to 100 nM | EC50 [3]: 0.001 to 0.1 nM

COC(=O)N[C@H](C(=O)N1CCC[C@H]1c1ncc(-c2ccc(-c3ccc(-c4cnc(C5C6CCC(C6)[C@@H]5C(=O)NCc5cccnc5C(C)C)[nH]4)cc3)cc2)[nH]1)[C@@H](C)OC (stereo partly drawn) [AA_245_B]
CC50 at 3 days [1]: > 1 nM | EC50 [2]: 10 to 100 nM | EC50 [3]: 0.101 to 1 nM

COC(=O)N[C@H](C(=O)N1CCC[C@H]1c1ncc(-c2ccc(-c3ccc(-c4cnc(C5C6CCC(C6)[C@@H]5C(=O)Nc5ccccc5)[nH]4)cc3)cc2)[nH]1)[C@@H](C)OC (stereo partly drawn) [AA_246_A]
CC50 at 3 days [1]: > 1 nM | EC50 [2]: 10 to 100 nM | EC50 [3]: 0.001 to 0.1 nM

COC(=O)N[C@H](C(=O)N1CCC[C@H]1c1ncc(-c2ccc(-c3ccc(-c4cnc(C5C6CCC(C6)[C@H]5C(=O)Nc5ccccc5)[nH]4)cc3)cc2)[nH]1)[C@@H](C)OC (stereo partly drawn) [AA_246_B]
CC50 at 3 days [1]: > 1 nM | EC50 [2]: 10 to 100 nM | EC50 [3]: 0.101 to 1 nM

COC(=O)N[C@H](C(=O)N1CCC[C@H]1c1ncc(-c2ccc(-c3ccc(-c4cnc(C5C6CCC(C6)[C@@H]5C(=O)N(C)c5ccccn5)[nH]4)cc3)cc2)[nH]1)[C@@H](C)OC (stereo partly drawn) [AA_247_A]
CC50 at 3 days [1]: > 1 nM | EC50 [2]: 0.101 to 1 nM | EC50 [3]: 0.001 to 0.1 nM

COC(=O)N[C@H](C(=O)N1CCC[C@H]1c1ncc(-c2ccc(-c3ccc(-c4cnc(C5C6CCC(C6)[C@H]5C(=O)N(C)c5ccccn5)[nH]4)cc3)cc2)[nH]1)[C@@H](C)OC (stereo partly drawn) [AA_247_B]
CC50 at 3 days [1]: > 1 nM | EC50 [2]: 1 to 10 nM | EC50 [3]: 0.001 to 0.1 nM

COC(=O)N[C@H](C(=O)N1CCC[C@H]1c1ncc(-c2ccc(-c3ccc(-c4cnc(C5C6CCC(C6)[C@H]5C(=O)NCc5ccncc5)[nH]4)cc3)cc2)[nH]1)[C@@H](C)OC (stereo partly drawn) [AA_248_A]
CC50 at 3 days [1]: > 1 nM | EC50 [2]: 10 to 100 nM | EC50 [3]: 0.101 to 1 nM

COC(=O)N[C@H](C(=O)N1CCC[C@H]1c1ncc(-c2ccc(-c3ccc(-c4cnc(C5C6CCC(C6)[C@@H]5C(=O)NCc5ccncc5)[nH]4)cc3)cc2)[nH]1)[C@@H](C)OC (stereo partly drawn) [AA_248_B]
CC50 at 3 days [1]: > 1 nM | EC50 [2]: 10 to 100 nM | EC50 [3]: 0.101 to 1 nM

COC(=O)N[C@H](C(=O)N1CCC[C@H]1c1ncc(-c2ccc(-c3ccc(-c4cnc(C5C6CCC(C6)[C@@H]5C(=O)NCc5cncnc5)[nH]4)cc3)cc2)[nH]1)[C@@H](C)OC (stereo partly drawn) [AA_249_A]
CC50 at 3 days [1]: > 1 nM | EC50 [2]: 0.101 to 1 nM | EC50 [3]: 0.001 to 0.1 nM

COC(=O)N[C@H](C(=O)N1CCC[C@H]1c1ncc(-c2ccc(-c3ccc(-c4cnc(C5C6CCC(C6)[C@@H]5C(=O)NNc5nccnc5Cl)[nH]4)cc3)cc2)[nH]1)[C@@H](C)OC (stereo partly drawn) [AA_250_A]
CC50 at 3 days [1]: > 1 nM | EC50 [2]: 10 to 100 nM | EC50 [3]: 0.101 to 1 nM

COC(=O)N[C@H](C(=O)N1CCC[C@H]1c1ncc(-c2ccc(-c3ccc(-c4cnc(C5C6CCC(C6)[C@H]5C(=O)NNc5nccnc5Cl)[nH]4)cc3)cc2)[nH]1)[C@@H](C)OC (stereo partly drawn) [AA_250_B]
CC50 at 3 days [1]: > 1 nM | EC50 [2]: 10 to 100 nM | EC50 [3]: 1 to 10 nM

COC(=O)N[C@H](C(=O)N1CCC[C@H]1c1ncc(-c2ccc(-c3ccc(-c4cnc(C5C6CCC(C6)[C@H]5C(=O)NC(C)c5cccnc5)[nH]4)cc3)cc2)[nH]1)[C@@H](C)OC (stereo partly drawn) [AA_251_A]
CC50 at 3 days [1]: > 1 nM | EC50 [2]: 0.101 to 1 nM | EC50 [3]: 0.101 to 1 nM

COC(=O)N[C@H](C(=O)N1CCC[C@H]1c1ncc(-c2ccc(-c3ccc(-c4cnc(C5C6CCC(C6)[C@@H]5C(=O)NC(C)c5cccnc5)[nH]4)cc3)cc2)[nH]1)C(C)OC (stereo partly drawn) [AA_251_B]
CC50 at 3 days [1]: > 1 nM | EC50 [2]: 1 to 10 nM | EC50 [3]: 0.101 to 1 nM

COC(=O)N[C@H](C(=O)N1CCC[C@H]1c1ncc(-c2ccc(-c3ccc(-c4cnc(C5C6CCC(C6)[C@@H]5C(=O)NC(C)c5cccnc5)[nH]4)cc3)cc2)[nH]1)[C@@H](C)OC (stereo partly drawn) [AA_251_C]
CC50 at 3 days [1]: > 1 nM | EC50 [2]: 10 to 100 nM | EC50 [3]: 1 to 10 nM

COC(=O)N[C@H](C(=O)N1CCC[C@H]1c1ncc(-c2ccc(-c3ccc(-c4cnc(C5C6CCC(C6)[C@@H]5C(=O)NCc5cccnc5F)[nH]4)cc3)cc2)[nH]1)[C@@H](C)OC (stereo partly drawn) [AA_252_A]
CC50 at 3 days [1]: > 1 nM | EC50 [2]: 1 to 10 nM | EC50 [3]: 0.101 to 1 nM

COC(=O)N[C@H](C(=O)N1CCC[C@H]1c1ncc(-c2ccc(-c3ccc(-c4cnc(C5C6CCC(C6)[C@H]5C(=O)NCc5cccnc5F)[nH]4)cc3)cc2)[nH]1)[C@@H](C)OC (stereo partly drawn) [AA_252_B]
CC50 at 3 days [1]: > 1 nM | EC50 [2]: 1 to 10 nM | EC50 [3]: 0.001 to 0.1 nM
